In patent US8343983B2, “Substituted pyrazolo-pyrimidine compounds” (ArQule, Inc., priority 2009, dated 2013):
Where two headings read alike, the source gives them in different places.

Tested on: cancer cells
Assay: MTS assay: inhibition of cell growth (formazan absorbance at 492 nm after 72 hours with test compound)
Type: cell-based
Conditions: inhibition class
Procedure, shortened: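 DMEM with 1% FBS; cells seeded at 3000/well and grown 18 h at 37 °C, then exposed to compound for 72 h and to MTS/PMS for 4 h. IC50 is the concentration giving a 50% absorbance drop; grades are % inhibition bands.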

[1] = Homo sapiens, DLD-1 cells, read-out: DLD-1, MTS 72 hours at 10 uM
[2] = Homo sapiens, KATO III cells, read-out: KATO III, MTS 72 hours at 10 uM
[3] = Homo sapiens, MDA-MB-231 cells, read-out: MDA-MB-231, MTS 72 hours at 10 uM
[4] = Homo sapiens, NCI-H1299 cells, read-out: NCI-H1299, MTS 72 hours at 10 uM
[5] = Homo sapiens, PC-3 cells, read-out: PC-3, MTS 72 hours at 10 uM
[6] = PACA-2 cells, read-out: PACA-2, MTS 72 hours at 10 uM

c1ccc(CN2CCc3n[nH]c4nc(N5CCN(Cc6cccnc6)CC5)nc2c34)cc1 [Compound 88, 6-benzyl-4-[4-(pyridin-3-ylmethyl)piperazin-1-yl]-2,6,7,8-tetrahydro-1,2,3,5,6-pentaazaacenaphthylene]
inhibition at 10 µM [1]: < 50% | inhibition at 10 µM [2]: > 79% | inhibition at 10 µM [3]: > 79% | inhibition at 10 µM [4]: < 50% | inhibition at 10 µM [5]: > 79% | inhibition at 10 µM [6]: < 50%

CCOC(=O)N1CCN(c2nc3c4c(n[nH]c4n2)CCN3Cc2ccccc2)CC1 [Compound 89, ethyl 4-(6-benzyl-2,6,7,8-tetrahydro-1,2,3,5,6-pentaazaacenaphthylen-4-yl)piperazine-1-carboxylate]
inhibition at 10 µM [1]: < 50% | inhibition at 10 µM [2]: < 50% | inhibition at 10 µM [3]: > 79% | inhibition at 10 µM [4]: < 50% | inhibition at 10 µM [5]: > 79% | inhibition at 10 µM [6]: < 50%

c1ccc(CN2CCc3n[nH]c4nc(NCCCN5CCCCC5)nc2c34)cc1 [Compound 90, 6-benzyl-N-(3-piperidin-1-ylpropyl)-2,6,7,8-tetrahydro-1,2,3,5,6-pentaazaacenaphthylen-4-amine]
inhibition at 10 µM [1]: > 79% | inhibition at 10 µM [2]: > 79% | inhibition at 10 µM [3]: > 79% | inhibition at 10 µM [4]: > 79% | inhibition at 10 µM [5]: > 79% | inhibition at 10 µM [6]: > 79%

CN(C)CCCNc1nc2c3c(n[nH]c3n1)CCN2Cc1ccccc1 [Compound 91, N′-(6-benzyl-2,6,7,8-tetrahydro-1,2,3,5,6-pentaazaacenaphthylen-4-yl)-N,N-dimethylpropane-1,3-diamine]
inhibition at 10 µM [1]: 50 to 79% | inhibition at 10 µM [2]: > 79% | inhibition at 10 µM [3]: > 79% | inhibition at 10 µM [4]: < 50% | inhibition at 10 µM [5]: > 79% | inhibition at 10 µM [6]: < 50%

c1ccc(CN2CCc3n[nH]c4nc(N5CCN(Cc6ccncc6)CC5)nc2c34)cc1 [Compound 92, 6-benzyl-4-[4-(pyridin-4-ylmethyl)piperazin-1-yl]-2,6,7,8-tetrahydro-1,2,3,5,6-pentaazaacenaphthylene]
inhibition at 10 µM [1]: < 50% | inhibition at 10 µM [2]: < 50% | inhibition at 10 µM [3]: < 50% | inhibition at 10 µM [4]: < 50% | inhibition at 10 µM [5]: < 50% | inhibition at 10 µM [6]: < 50%

COc1cccc(CNc2nc3c4c(n[nH]c4n2)CCN3Cc2ccccc2)c1 [Compound 93, 6-benzyl-N-(3-methoxybenzyl)-2,6,7,8-tetrahydro-1,2,3,5,6-pentaazaacenaphthylen-4-amine]
inhibition at 10 µM [1]: < 50% | inhibition at 10 µM [2]: < 50% | inhibition at 10 µM [3]: < 50% | inhibition at 10 µM [4]: < 50% | inhibition at 10 µM [5]: < 50% | inhibition at 10 µM [6]: < 50%

Fc1cccc(CCNc2nc3c4c(n[nH]c4n2)CCN3Cc2ccccc2)c1 [Compound 94, 6-benzyl-N-[2-(3-fluorophenyl)ethyl]-2,6,7,8-tetrahydro-1,2,3,5,6-pentaazaacenaphthylen-4-amine]
inhibition at 10 µM [1]: < 50% | inhibition at 10 µM [2]: < 50% | inhibition at 10 µM [3]: < 50% | inhibition at 10 µM [4]: < 50% | inhibition at 10 µM [5]: < 50% | inhibition at 10 µM [6]: < 50%

c1ccc(CN2CCc3n[nH]c4nc(N5CCN(c6ccccn6)CC5)nc2c34)cc1 [Compound 95, 6-benzyl-4-(4-pyridin-2-ylpiperazin-1-yl)-2,6,7,8-tetrahydro-1,2,3,5,6-pentaazaacenaphthylene]
inhibition at 10 µM [1]: < 50% | inhibition at 10 µM [2]: < 50% | inhibition at 10 µM [3]: < 50% | inhibition at 10 µM [4]: < 50% | inhibition at 10 µM [5]: < 50% | inhibition at 10 µM [6]: < 50%

C[C@@H]1CN(c2nc3c4c(n[nH]c4n2)CCN3Cc2ccccc2)C[C@H](C)O1 [Compound 96, 6-benzyl-4-[(2R,6S)-2,6-dimethylmorpholin-4-yl]-2,6,7,8-tetrahydro-1,2,3,5,6-pentaazaacenaphthylene]
inhibition at 10 µM [1]: < 50% | inhibition at 10 µM [2]: > 79% | inhibition at 10 µM [3]: > 79% | inhibition at 10 µM [4]: < 50% | inhibition at 10 µM [5]: > 79% | inhibition at 10 µM [6]: < 50%
